Data on two compounds can be found in US20090011051A1, “Methods, Compositions and Articles of Manufacture for HIF Modulating Compounds” (priority 2006, published 2009).

The structures appear in SMILES notation. Where two headings read alike, the source gives them in different places.

Series [1] deals with rats. As to conditions: moderate levels, cited from earlier work.
For series [2], the system named is nematodes (Caenorhabditis elegans). Here is the method:
Nematodes of each strain in the fourth larval stage were moved onto fresh nematode growth plates. […] The nematodes were removed the next morning and the percent surviving nematodes was determined.

The subject of series [3] is rats. As to conditions: cited from earlier work.
In series [4] the test system is humans. As to conditions: chronic low-level exposure; cited from earlier work.
Series [5] relates to nematodes (Caenorhabditis elegans). Put plainly: Survival of C. elegans in H2S after pre-treatment with H2S gas (Example 2). As to conditions: air plus 200 ppm H2S. Type of series: in vivo.
Series [6] deals with rodents. As to conditions: H2S gas; cited from earlier work.
For series [7] the following is noted: extreme levels (500 ppm), followed by recovery; cited from earlier work.
Series [8] deals with humans. As to conditions: H2S gas; cited from earlier work.
Series [9] deals with humans. As to conditions: cited from earlier work.

Take `S` [Compound H2S, Hydrogen sulfide]: the discriminated avoidance responses entry in [1] (immediately after the end of the exposure) was “inhibits discriminated avoidance responses”. The “learning of baited radial arm maze task” value in [1] was “interferes with the ability of rats to learn a baited radial arm maze task”. Besides, the percent surviving nematodes result is given as “survived” in [2] (nematodes lacking the Egl-9 gene, air plus 100 ppm H2S, in contrast to wild type); “unable to survive” in series [2] (nematodes lacking the Hif-1 gene, fourth larval stage, air plus 20 ppm H2S, removed next morning); “able to survive” in [2] (wild type nematodes, fourth larval stage, air plus 20 ppm H2S, removed next morning); “survived” in [5] (Egl-9 mutant nematodes); “unable to survive” in series [5] (wild type nematodes raised in air). The “neuropathology and behavior of exposed rat pups” value in [3] (perinatal study, 80 ppm) is listed as “no neuropathological effects or altered motor activity, passive avoidance, or acoustic startle response”. Also, the “cerebellar Purkinje cell morphology” value in series [3] (rats, 20 or 50 ppm, 7 hours per day from gestation through post-natal day 21) was “longer dendritic branches with reduced aborization of cerebellar Purkinje cells”. Moreover, the “effects of chronic exposure” value in series [4] was “persistent impairments in balance and memory, as well as altered sensory motor functions”. Also, the LD50 result in series [6] and in series [8] was “approximately 700 ppm” each time. The “effect of acute exposure (knockdown effect)” value in series [7] was “sudden collapse and unconsciousness”.
As to `[C-]#[O+]` [carbon monoxide, Carbon monoxide], the symptoms entry is given as “no symptoms” in series [9] (50 ppm, humans); “slight headache” in [9] (200 ppm, within two-three hours); “frontal headache” in [9] (400 ppm, within one to two hours, may become widespread within three hours); “dizziness, nausea, and/or convulsions” in [9] (800 ppm, within 45 minutes); “insensible” in series [9] (800 ppm, within two hours). Besides, in series [9] (around 1000 ppm, an organism, exposure for more than around 1-2 minutes), the lethality entry is “can expire”.
